Test results taken from ChEMBL document CHEMBL4706685 (J Med Chem, 2021).
Values after ≈ are worked out from the molar mass of the structure shown.

Assays:
CYP1A2 = experiment: Induction of CYP1A2 mRNA expression in human hepatocytes up to 30 uM relative to positive control; format: ADME, cell-based, Hepatocyte; conditions: read-out: Activity
[1] = Lipophilicity, logP of compound by HPLC analysis; format: physicochemical
[2] = Drug excretion in female Sprague-Dawley rat urine/feces assessed as drug recovery at […], po administered as single dose using [14C]-EC5026 measured through 168 hrs postdose; conditions: in vivo
[3] = Terminal half life in human at 8 to 24 mg; format: ADME; conditions: dose 8-24 mg, read-out: beta t1/2 (converted)
CYP2B6 = experiment: Induction of CYP2B6 mRNA expression in human hepatocytes up to 30 uM relative to positive control; format: ADME, cell-based, Hepatocyte; conditions: read-out: Activity
CYP3A4 = experiment: Induction of CYP3A4 mRNA expression in human hepatocytes up to 30 uM relative to positive control; format: ADME, cell-based, Hepatocyte; conditions: read-out: Activity
[4] = Drug excretion in male Sprague-Dawley rat urine/feces assessed as drug recovery at 3 mg/kg, po administered as single dose using [14C]-EC5026 measured through 168 hrs postdose; conditions: in vivo
[5] = Solubility in 0.1M sodium phosphate buffer at pH 7.4; format: physicochemical

CC[C@H](C)C(=O)N1CCC(NC(=O)Nc2ccc(OC(F)(F)F)c(F)c2)CC1
Emax (CYP1A2): < 20%
logP ([1]; read-out: logP): 6
Drug recovery [2]: 96.5%
half-life [3]: 42 h
Emax (CYP2B6): < 20%
Emax (CYP3A4): < 20%
Drug recovery [4]: 96.5%

CC[C@H](C)C(=O)N1CCC(CC(=O)Nc2ccc(OC(F)(F)F)c(F)c2)CC1
logP [1]: 3.2
solubility [5]: 404.41 µg/mL (≈ 1000 µM)

O=C(Nc1ccc(OC(F)(F)F)c(F)c1)NC1CCN(C(=O)C2CC2)CC1
logP ([1]; read-out: logP): 4.2
